Data taken from patent publication US20240018161A1, “MODULATORS OF CYSTIC FIBROSIS TRANSMEMBRANE CONDUCTANCE REGULATOR” (VERTEX PHARMACEUTICALS INCORPORATED, priority 2020, published 2024).

Experiments:
[1] = from 3-[[4-[(1-benzylpiperazin-2-yl)methoxy]-6-(2,6-dimethylphenyl)pyrimidin-2-yl]sulfamoyl]benzoic acid (Dihydrochloride salt); amide bond; 14-membered ring; HATU/DIEA; DMF; 12.7 mM; 25.0 °C; 3 steps
[2] = target: T1, CFTR-mediated short-circuit current in F508del/MF-HBE cells (Homo sapiens, UniProt P13569, DEL508-508); assay: HBE assay: Ussing chamber assay of CFTR-mediated short-circuit currents; type: cell-based; settings: for EC50: read-out: HBE EC50; for Emax: read-out: HBE Max Activity (%)
T1 construct: human bronchial epithelial (HBE) cells derived from CF subjects; endogenous in cells; host or cells: primary human bronchial epithelial cells from CF subjects (F508del/MF-HBE)
T1 sequence (P13569 with tags, fused parts or gaps DEL508-508): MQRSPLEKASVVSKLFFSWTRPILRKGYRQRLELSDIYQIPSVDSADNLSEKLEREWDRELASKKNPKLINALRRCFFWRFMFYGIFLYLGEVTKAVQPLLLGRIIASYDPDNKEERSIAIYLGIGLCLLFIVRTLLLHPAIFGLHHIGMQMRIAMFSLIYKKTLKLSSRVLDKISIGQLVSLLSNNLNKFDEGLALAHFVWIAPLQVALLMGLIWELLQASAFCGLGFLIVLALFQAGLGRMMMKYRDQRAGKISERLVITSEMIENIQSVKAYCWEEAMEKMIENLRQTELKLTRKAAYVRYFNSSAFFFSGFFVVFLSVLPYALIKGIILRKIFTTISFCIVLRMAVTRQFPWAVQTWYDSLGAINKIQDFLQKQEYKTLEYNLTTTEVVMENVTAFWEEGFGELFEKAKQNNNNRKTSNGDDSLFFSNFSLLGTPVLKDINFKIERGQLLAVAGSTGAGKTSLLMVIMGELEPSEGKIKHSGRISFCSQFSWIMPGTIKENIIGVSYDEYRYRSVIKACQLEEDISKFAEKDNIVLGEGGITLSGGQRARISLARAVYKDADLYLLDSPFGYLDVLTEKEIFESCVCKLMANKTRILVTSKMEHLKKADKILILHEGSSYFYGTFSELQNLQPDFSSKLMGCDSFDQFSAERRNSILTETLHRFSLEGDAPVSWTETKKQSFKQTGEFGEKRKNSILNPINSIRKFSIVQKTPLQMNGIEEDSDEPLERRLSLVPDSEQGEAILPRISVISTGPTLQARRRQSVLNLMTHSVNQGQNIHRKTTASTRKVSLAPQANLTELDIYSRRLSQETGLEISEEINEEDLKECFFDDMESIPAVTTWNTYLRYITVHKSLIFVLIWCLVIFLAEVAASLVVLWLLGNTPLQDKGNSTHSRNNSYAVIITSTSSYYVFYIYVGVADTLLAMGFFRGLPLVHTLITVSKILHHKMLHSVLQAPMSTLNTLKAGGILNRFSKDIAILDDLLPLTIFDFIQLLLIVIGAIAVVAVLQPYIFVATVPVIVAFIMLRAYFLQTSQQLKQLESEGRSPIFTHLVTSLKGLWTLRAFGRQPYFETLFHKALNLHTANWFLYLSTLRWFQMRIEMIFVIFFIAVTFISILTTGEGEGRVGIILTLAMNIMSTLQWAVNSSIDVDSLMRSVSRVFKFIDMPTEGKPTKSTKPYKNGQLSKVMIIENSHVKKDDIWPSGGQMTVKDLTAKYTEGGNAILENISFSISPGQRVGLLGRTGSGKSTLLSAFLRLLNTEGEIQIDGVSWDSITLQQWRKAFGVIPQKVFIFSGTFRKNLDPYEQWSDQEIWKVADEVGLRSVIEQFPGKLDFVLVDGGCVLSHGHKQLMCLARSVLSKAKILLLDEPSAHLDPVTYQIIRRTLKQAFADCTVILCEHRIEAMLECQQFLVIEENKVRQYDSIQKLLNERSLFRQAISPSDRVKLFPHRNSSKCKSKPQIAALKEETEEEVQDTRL
Protocol: (§1) 1. Ussing Chamber Assay of CFTR-Mediated Short-Circuit Currents
(§2) Ussing chamber experiments were performed using human bronchial epithelial (HBE) cells derived from CF subjects heterozygous for F508del and a minimal function CFTR mutation (F508del/MF-HBE) and cultured as previously described (Neuberger T, Burton B, Clark H, Van Goor F Methods Mol Biol 2011:741:39-54). After four days the apical media was removed, and the cells were grown at an air liquid interface for >14 days prior to use.
(§3) To isolate the CFTR-mediated short-circuit (ISC) current, F508del/MF-HBE grown on Costar® Snapwell™ cell culture inserts were mounted in an Ussing chamber and the transepithelial ISC was measured under voltage-clamp recording conditions (Vhold=0 mV) at 37° C. The basolateral solution contained (in mM) 145 NaCl, 0.83 K2HPO4, 3.3 KH2PO4, 1.2 MgCl2, 1.2 CaCl2), 10 Glucose, 10 HEPES (pH adjusted to 7.4 with NaOH) and the apical solution contained (in mM) 145 NaGluconate, 1.2 MgCl2, 1.2 CaCl2, 10 glucose, 10 HEPES (pH adjusted to 7.4 with NaOH) and 30 μM amiloride to block the epithelial sodium channel. Forskolin (20 μM) was added to the apical surface to activate CFTR, followed by apical addition of a CFTR inhibitor cocktail consisting of BPO, GlyH-101, and CFTR inhibitor 172 (each at 20 μM final assay concentration) to specifically isolate CFTR currents. The CFTR-mediated ISC (μA/cm^2) for each condition was determined from the peak forskolin response to the steady-state current following inhibition.
(§4) 2. Identification of Corrector Compounds
(§5) The activity of the CFTR corrector compounds on the CFTR-mediated ISC was determined in Ussing chamber studies as described above. The F508del/MF-HBE cell cultures were either incubated with the corrector compounds at a range of concentrations in combination with 1 μM Ivacaftor or were incubated with the corrector compounds at a single fixed concentration of 10 μM in combination with 1 μM Ivacaftor for 18-24 hours at 37° C. and in the presence of 20% human serum. The concentration of corrector compounds with 1 μM Ivacaftor during the 18-24 hours incubations was kept constant throughout the Ussing chamber measurement of the CFTR-mediated ISC to ensure compounds were present throughout the entire experiment.
as §3, with “CaCl2,” for “CaCl2),”

[3] = target: T1, CFTR-mediated short-circuit current in F508del/MF-HBE cells; assay: HBE2 assay: Ussing chamber assay of CFTR-mediated short-circuit currents; type: cell-based
Protocol: as §1, §2
as §3, with “CaCl2,” for “CaCl2),”
as §4
as §5, with “44 nM (6R,12R)-17-amino-12-methyl-6,15-bis(trifluoromethyl)-13,19-dioxa-3,4,18-triazatricyclo[12.3.1.12,5]nonadeca-1(18),2,4,14,16-pentaen-6-ol” for “1 μM Ivacaftor”, “1 and 3” for “10”, “[…]” for “20%”

[4] = F508del/MF-HBE, 18-24 hours with 1 μM Ivacaftor, 20% human serum, compared to known Vertex corrector with Tezacaftor and Ivacaftor
[5] = F508del/MF-HBE, 18-24 hours with 1 μM Ivacaftor, 20% human serum

| Compound | HBE Activity at 10 μM (%) [2] | EC50 [2, 5] [µM] | further results |
| --- | --- | --- | --- |
| Cc1cccc(C)c1-c1cc2nc(n1)NS(=O)(=O)c1cccc(c1)C(=O)N1CCNC(CO2)C1 (stereo not drawn) | – | – | ring closure, crude yield [1]: 22% |
| Cc1cccc(C)c1-c1cc2nc(n1)NS(=O)(=O)c1cccc(c1)C(=O)N1[C@@H](c3ncc(OC(C)C)cn3)CC[C@@H](CC(C)C)[C@H]1CO2 (single isomer, unassigned) [Compound 392, 13-(2,6-dimethylphenyl)-7-isobutyl-4-(5-isopropoxypyrimidin-2-yl)-17,17-dioxo-10-oxa-17λ^6-thia-3,14,16,23-tetrazatetracyclo[16.3.1.111,15.03,8]tricosa-1(21),11,13,15(23),18(22),19-hexaen-2-one] | ++ (++ is 30-60%) | – | – |
| Cc1cccc(C)c1-c1cc2nc(n1)NS(=O)(=O)c1cccc(c1)C(=O)N1[C@@H](c3ncc(OC(C)C)cn3)CC[C@@H](CC(C)C)[C@H]1CO2 (single isomer, unassigned) [Compound 393, 13-(2,6-dimethylphenyl)-7-isobutyl-4-(5-isopropoxypyrimidin-2-yl)-17,17-dioxo-10-oxa-17λ^6-thia-3,14,16,23-tetrazatetracyclo[16.3.1.111,15.03,8]tricosa-1(21),11,13,15(23),18(22),19-hexaen-2-one] | +++ (+++ is >60%) | – | activation at 3 µM [3]: > 60% |

Further lines, with some results ahead:

| HBE Activity at 10 μM (%) [2] | EC50 [2, 5] [µM] | Compound | further results |
| --- | --- | --- | --- |
| ++ (++ is 30-60%) | – | Cc1cccc(C)c1-c1cc2nc(n1)NS(=O)(=O)c1cccc(c1)C(=O)N1[C@@H](c3cccc(N(C)C4CC5(CC5)C4)n3)CC[C@@H](C(C)C)[C@H]1CO2 (single isomer, unassigned) [Compound 391, 13-(2,6-dimethylphenyl)-7-isopropyl-4-[6-[methyl(spiro[2.3]hexan-5-yl)amino]-2-pyridyl]-17,17-dioxo-10-oxa-17λ^6-thia-3,14,16,23-tetrazatetracyclo[16.3.1.111,15.03,8]tricosa-1(21),11,13,15(23),18(22),19-hexaen-2-one] | – |
| – | 3 to 30 | Cc1cccc(C)c1-c1cc2nc(n1)NS(=O)(=O)c1cccc(c1)C(=O)N1[C@H](CCC[C@@H]1c1ccccn1)CO2 [Compound 327] | HBE Max activity (%) [2, 4]: ++ (++ is 30-60%) |
| – | 1 to 3 | Cc1cccc(C)c1-c1cc2nc(n1)NS(=O)(=O)c1cccc(c1)C(=O)N1[C@H](CCC[C@@H]1c1ccccn1)CO2 [Compound 328] | Emax [2, 4]: 30 to 60% |
| – | < 1 | Cc1cccc(C)c1-c1cc2nc(n1)NS(=O)(=O)c1cccc(c1)C(=O)N1C(c3ncc(OC(C)C)cn3)CCC(C(C)C)C1CO2 (stereo not drawn) [Compound 371] | Emax [2, 4]: > 60% |
| +++ (+++ is >60%) | – | Cc1cccc(C)c1-c1cc2nc(n1)NS(=O)(=O)c1cccc(c1)C(=O)N1C(c3ncc(OC(C)C)cn3)CCC(CC(C)C)C1CO2 (stereo not drawn) [Compound 414] | – |
